Measured values taken from patent US7022736B2, “Enzyme inhibitors” (Istituto Di Ricerche Di Biologia Molecolare P Angeletti SpA, priority 1998, dated 2006).
Like-named read-outs stand apart in the source and are kept apart here.

Target: T1, HCV RdRp (NS5B RNA-dependent RNA polymerase) (Hepatitis C virus genotype 1b, UniProt P26663)
T1 construct: The HCV NS5B protein is the viral RdRp; made in house; host or cells: insect cells infected with recombinant baculovirus
Experiment: Inhibition of hepatitis C virus RdRp (poly(A)/oligo(U), [3H]UTP incorporation)
Type: biochemical
Procedure: In initial tests, the compounds were tested to see if they were effective as inhibitors of the RNA-dependent RNA polymerase (RdRp) of hepatitis C virus (HCV). The HCV NS5B protein is the viral RdRp; compounds capable of interfering with the activity of this enzyme are thus expected to block viral replication.
Test for Inhibition of Hepatatis C Virus RdRp
WO96/37619 describes the production of recombinant HCV RdRp from insect cells infected with recombinant baculovirus encoding the enzyme. […] The reference describes a polymerisation assay using poly (A) as a template and oligo (U) as a primer. Incorporation of tritiated UTP is quantified by measuring acid-insoluble radioactivity. The present inventors have employed this assay to screen the various compounds described above as inhibitors of HCV RdRp and other virally encoded polymerases.
Incorporation of radioactive UMP was measured as follows. The standard reaction (100 μl) was carried out in a buffer containing 20 mM tris/HCl pH 7.5, 5 mM MgCl2, 1 mM DTT, 50 mM NaCl, 1 mM EDTA, 2 OU Rnasin (Promega), 0.05% Triton X-100, 1 μCi[^3H] UTP (40 Ci/mmol,NEN), 10 μM UTP and 10 μg/ml poly (A). Oligo (U)12 (1 μg/ml, Genset) was added as a primer. The final NSSB enzyme concentration was 20 nM. After 1 hour incubation at 22° C. the reaction was stopped by adding 100 μl of 20% TCA and applying samples to DE81 filters. The filters were washed thoroughly with 5% TCA containing 1M Na2HPO4/NaH2PO4, pH 7.0, rinsed with water and then ethanol, air dried, and the filter-bound radioactivity was measured in the scintillation counter. By carrying out the reaction in the presence of various concentrations of each of the compounds set out above it was possible to determine IC50 values for each compound with the formula: % residual activity=100/(1+[I]/IC50)^s where [I] is the inhibitor concentration and “s” is the slope of the inhibition curve. Test for Inhibition of Hepatitis B Virus Polymerase

[1] = Tables I-VIII, 20 nM NS5B, 1 hour at 22° C., read-out: IC 50 (μM), HCV-polymerase
[2] = Tables IXa-IXc, unit inferred, read-out: HCV (IC50)

T1 sequence (P26663 2420-3010): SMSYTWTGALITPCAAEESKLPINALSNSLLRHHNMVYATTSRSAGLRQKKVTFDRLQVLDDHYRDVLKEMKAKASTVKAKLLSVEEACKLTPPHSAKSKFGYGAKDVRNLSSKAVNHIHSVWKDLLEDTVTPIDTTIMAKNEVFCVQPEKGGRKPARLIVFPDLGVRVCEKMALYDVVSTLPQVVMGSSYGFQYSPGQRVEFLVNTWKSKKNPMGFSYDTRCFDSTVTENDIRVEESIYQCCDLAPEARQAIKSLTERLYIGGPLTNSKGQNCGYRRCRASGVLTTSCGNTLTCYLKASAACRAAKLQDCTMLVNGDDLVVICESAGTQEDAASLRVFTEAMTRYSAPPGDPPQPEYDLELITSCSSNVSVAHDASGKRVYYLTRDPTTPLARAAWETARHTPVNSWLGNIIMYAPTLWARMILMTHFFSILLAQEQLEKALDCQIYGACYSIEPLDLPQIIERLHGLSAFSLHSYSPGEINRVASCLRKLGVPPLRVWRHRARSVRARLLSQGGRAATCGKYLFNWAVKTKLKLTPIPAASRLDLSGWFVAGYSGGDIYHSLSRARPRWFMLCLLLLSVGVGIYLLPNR

SMILES	IC50 [1] [µM]	IC50 [2] [µM]	IC50 [µM]
CCc1ccc(C(=O)C=C(O)C(=O)O)cc1 [Example 164]	47		
CCCOc1ccccc1C(=O)C=C(O)C(=O)O [Example 29]	3.9		
Cc1cccc(COc2cccc(C(=O)C=C(O)C(=O)O)c2)c1F [Example 86]	2.05		
O=C(O)C(O)=CC(=O)c1cccc(OCc2cc(-c3ccccc3)on2)c1 [Example 103]	6	6	
O=C(O)C(O)=CC(=O)c1ccccc1Oc1ccc(F)cc1 [Example 37]	18		
O=C(O)C(O)=CC(=O)c1cccc(NS(=O)(=O)c2cc(Cl)c(Cl)cc2Cl)c1 [Example 119]	0.049		
O=C(O)C(O)=CC(=O)c1cccc(OCc2ccccc2-c2ccccc2)c1 [Example 97]	2.8		
O=C(O)C(O)=CC(=O)c1ccsc1Cc1ccccc1Cl [Example 233]	9.2		
O=C(O)C(O)=CC(=O)c1cccc(OCc2ccsc2C(=O)O)c1 [Example 84]	0.95	0.95	
O=C(O)C(O)=CC(=O)c1sccc1Cc1cccc(Cl)c1 [Example 212]	7.5		
O=C(O)C(O)=CC(=O)c1cccc(NS(=O)(=O)c2cc(Cl)sc2Cl)c1 [Example 95]	0.48		
O=C(O)C(O)=CC(=O)c1cccc(S(=O)(=O)Nc2ccccc2)c1 [Example 144]	14		
O=C(O)C(O)=CC(=O)c1cccc(NS(=O)(=O)c2cccs2)c1 [Example 101]	7		
Cc1cc(C)c(S(=O)(=O)Nc2cccc(C(=O)C=C(O)C(=O)O)c2)c(C)c1 [Example 146]	15		
O=C(O)C(O)=CC(=O)c1cccc(Cn2nnc3ccccc32)c1 [Example 154]	30		
CC(C)(C)C(=O)C=C(O)C(=O)O [Example 241]	37		
C#CCCCOc1ccccc1C(=O)C=C(O)C(=O)O [Example 51]	1.9		
O=C(O)C(O)=CC(=O)c1cccc(NS(=O)(=O)c2ccc(Cl)c(Cl)c2Cl)c1 [Example 125]	0.17		
Cc1cc(C(=O)C=C(O)C(=O)O)c(C)o1 [Example 237]	14		
O=C(O)C(O)=CC(=O)c1ccc(N2CCCCC2)s1 [Example 200]	8.2		

SMILES	IC50 [1] [µM]	IC50 [2] [µM]	IC50 [µM]
COc1cccc(C(=O)C=C(O)C(=O)O)c1 [Example 60]	40		
C=CCN(CC=C)c1ccc(C(=O)C=C(O)C(=O)O)s1 [Example 203]	19.8		
O=C(O)C(O)=CC(=O)c1cccc(OCc2cc(C(=O)O)ccc2Cl)c1 [Example 98]	1		
O=C(O)C(=O)CC(=O)c1ccco1 [Example 216]			50
COc1cccc(OC)c1C(=O)C=C(O)C(=O)O [Example 172]	> 50		
O=C(O)C(O)=CC(=O)c1ccsc1Sc1ccc(F)cc1 [Example 234]	14.5		
Cc1csc2sc(C(=O)C=C(O)C(=O)O)c(C)c12 [Example 201]	20		
N#Cc1ccccc1COc1cc(O)cc(C(=O)C=C(O)C(=O)O)c1 [Example 158]	0.2	0.2	
O=C(O)C(O)=CC(=O)c1cccc(OCc2cccc(Oc3ccccc3)c2)c1 [Example 104]	50		
O=C(O)C(O)=CC(=O)c1cccn1CCCCOc1ccccc1 [Example 189]	28		
O=C(O)C(O)=CC(=O)c1ccccc1N(Cc1ccccc1)Cc1ccccc1 [Example 42]	16.6		
Cc1ccsc1C(=O)C=C(O)C(=O)O [Example 191]	10		
COc1cccc(COc2cccc(C(=O)C=C(O)C(=O)O)c2)c1 [Example 92]	1		
O=C(O)C(O)=CC(=O)C1(c2ccccc2)CCN(S(=O)(=O)c2cccc(Cl)c2)CC1 [Example 246]	18		
O=C(O)C(O)=CC(=O)c1cccn1CC1CCCC1 [Example 175]	25		
O=C(O)C(O)=CC(=O)c1ccc(Cc2cccc(Cl)c2)s1 [Example 211]	82		
O=C(O)C(O)=CC(=O)c1cccc(NS(=O)(=O)c2ccc(F)cc2Cl)c1 [Example 138]	1.1		
O=C(O)C(O)=CC(=O)c1ccsc1Cc1ccc(F)cc1 [Example 228]	17.8		
COc1ccccc1C(=O)C=C(O)C(=O)O [Example 17]	11.6		
O=C(O)C(O)=CC(=O)c1cccc(NS(=O)(=O)c2ccccc2)c1 [Example 67]	16		
